Results published in US20260226037A1, “MICROTUBULE TARGETING AGENTS” (ARIEL SCIENTIFIC INNOVATIONS LTD., priority 2022, published 2026).
pIC50: −log10 of the molar value.

Legend:
Assay type in all cases: cell-based
MES-SA/DX5 cells = assay: XTT cytotoxicity, MES-SA/DX5; details: for effectiveness in subline overexpressing PgP: MES-SA/DX5 vs MES-SA; for pIC50: Homo sapiens, MES-SA/DX5, uterine sarcoma, P-gp overexpression; for IC50 ratio between resistant and non-resistant cells: MES-SA/DX5 / MES-SA
Protocol: (§1) The cytotoxic activity of the novel family was evaluated against various tumor cells, including myeloma cells, acute lymphoblastic leukemia cells, acute monocytic leukemia cells, chronic myelogenous leukemia cells, pancreatic cancer cells, breast cancer cells, uterine sarcoma cells, cervix adenocarcinoma cells, ovary cancer cells, melanoma cells, osteosarcoma cells, prostate cancer cells, lung cancer cells, neuroblastoma cells and colorectal adenocarcinoma cells by XTT assay.

N6/ADR cells = assay: XTT cytotoxicity, N6/ADR; details: for IC50 ratio between resistant and non-resistant cells: N6/ADR / NALM6; for pIC50: N6/ADR, acute lymphoblastic leukemia, P-gp overexpression, read-out: IC50
Protocol: as §1
(§2) Most tubulin-binding anticancer drugs currently used in the clinic are substrates for Pgp effux pump. […] The inventors tested the viability of NALM6 acute lymphoblastic leukemia cell line (ALL) and its corresponding doxorubicin resistant N6/ADR cell line that overexpress Pgp glycoprotein and has cross-resistance to vincristine.

[1] = tested on: colchicine binding site on tubulin protein; assay: EBI competition assay, RPMI-8226 cells; details: RPMI-8226 living cells
RPMI 8226 cells = assay: XTT cytotoxicity, RPMI 8226; details: Homo sapiens; RPMI 8226, multiple myeloma, non-resistant; read-out: IC50
Protocol: as §1

NALM6 cells = assay: XTT cytotoxicity, NALM6; details: Homo sapiens, NALM-6; NALM6, acute lymphoblastic leukemia, non-resistant; read-out: IC50
Protocol: as §1, §2

RPMI-LR5 cells = assay: XTT cytotoxicity, RPMI-LR5; details: for pIC50: RPMI-LR5, multiple myeloma, melphalan resistant, read-out: IC50; for IC50 ratio between resistant and non-resistant cells: RPMI-LR5 / RPMI 8226
Protocol: as §1

MCF7 cells = assay: XTT cytotoxicity, MCF7; details: Homo sapiens; MCF7, breast adenocarcinoma, non-resistant
Protocol: as §1

MES-SA cells = assay: XTT cytotoxicity, MES-SA; details: Homo sapiens, poorly differentiated uterine sarcoma, non-resistant
Protocol: as §1

MM1.S cells = assay: XTT cytotoxicity, MM1.S; details: Homo sapiens, multiple myeloma, non-resistant, read-out: IC50
Protocol: as §1

RPMI-DOX40 cells = assay: XTT cytotoxicity, RPMI-DOX40; details: for pIC50: RPMI-DOX40, multiple myeloma, P-gp overexpression, read-out: IC50; for IC50 ratio between resistant and non-resistant cells: RPMI-DOX40 / RPMI 8226
Protocol: as §1

RPMI-MR20 cells = assay: XTT cytotoxicity, RPMI-MR20; details: for pIC50: RPMI-MR20, mitoxantrone resistant, read-out: IC50; for IC50 ratio between resistant and non-resistant cells: RPMI-MR20 / RPMI 8226
Protocol: as §1

MM1.R cells = assay: XTT cytotoxicity, MM1.R; details: for pIC50: MM.1R, MM1.R, multiple myeloma, dexamethasone resistant, read-out: IC50
Protocol: as §1

MCF7-VP cells = assay: XTT cytotoxicity, MCF7-VP; details: for pIC50: Homo sapiens, MCF7-VP, breast adenocarcinoma, MRP overexpression; for IC50 ratio between resistant and non-resistant cells: MCF7-VP / MCF7
Protocol: as §1

A2780 cells = assay: XTT cytotoxicity, A2780; details: Homo sapiens; A2780, ovarian carcinoma, non-resistant
Protocol: as §1

A2780ADR cells = assay: XTT cytotoxicity, A2780ADR; details: for IC50 ratio between resistant and non-resistant cells: A2780ADR / A2780; for pIC50: A2780 ADR, A2780ADR, ovarian carcinoma, resistant
Protocol: as §1

NCI-H69 VCR/R cells = assay: XTT cytotoxicity, NCI-H69 VCR/R; details: for pIC50: Homo sapiens, NCI-H69 VCR/R, vincristine resistant; for IC50 ratio between resistant and non-resistant cells: NCI-H69 VCR/R / NCI-H69
Protocol: as §1

NCI-H69 cells = assay: XTT cytotoxicity, NCI-H69; details: Homo sapiens; NCI-H69, small cell lung carcinoma, non-resistant
Protocol: as §1

Q: For COc1cc2c(c(OC)c1OC)-c1ccc(OC)c(=O)cc1[C@@H](NC(C)=O)CC2 [Colchicine], which “effectiveness in subline overexpressing PgP” value (MES-SA/DX5 cells) is on record?
A: Its value is “less effective in the subline overexpressing PgP”.

Q: Which results are given for CCCCCOC(=O)c1[nH]c2c(c1C)C(=O)CC(c1ccco1)C2 (stereo not drawn) [SMS001, reference compound]?
A: IC50 ratio between resistant and non-resistant cells (N6/ADR cells): 1.000; pIC50 (N6/ADR cells): 7.43; pIC50 (MES-SA/DX5 cells): 7.31; IC50 ratio between resistant and non-resistant cells (MES-SA/DX5 cells): 0.241; prevention of covalent binding of EBI to the colchicine binding site [1]: prevented the covalent binding of EBI to the colchicine binding site; pIC50 (RPMI 8226 cells): 7.40; pIC50 (NALM6 cells): 7.43; pIC50 (RPMI-LR5 cells): 7.54; IC50 ratio between resistant and non-resistant cells (RPMI-LR5 cells): 0.725; pIC50 (MCF7 cells): 6.46; pIC50 (MES-SA cells): 6.69; pIC50 (MM1.S cells): 7.20; pIC50 (RPMI-DOX40 cells): 7.47; IC50 ratio between resistant and non-resistant cells (RPMI-DOX40 cells): 0.850; pIC50 (RPMI-MR20 cells): 7.46; IC50 ratio between resistant and non-resistant cells (RPMI-MR20 cells): 0.875; pIC50 (MM1.R cells): 7.16; pIC50 (MCF7-VP cells): 6.33; IC50 ratio between resistant and non-resistant cells (MCF7-VP cells): 1.340

Q: Which results are given for CCC1=C[C@@H]2CN(C1)Cc1c([nH]c3ccccc13)[C@@](C(=O)OC)(c1cc3c(cc1OC)N(C)[C@H]1[C@@](O)(C(=O)OC)[C@H](OC(C)=O)[C@]4(CC)C=CCN5CC[C@]31[C@@H]54)C2 [Vinorelbine]?
A: pIC50 (A2780 cells): 8.05; IC50 ratio between resistant and non-resistant cells (A2780ADR cells): 300.000; pIC50 (A2780ADR cells): 5.57; pIC50 (MES-SA/DX5 cells): < 6.00; IC50 ratio between resistant and non-resistant cells (MES-SA/DX5 cells): >15.625; effectiveness in subline overexpressing PgP (MES-SA/DX5 cells): less effective in the subline overexpressing PgP; pIC50 (NCI-H69 VCR/R cells): < 6.00; IC50 ratio between resistant and non-resistant cells (NCI-H69 VCR/R cells): >45.454; pIC50 (NCI-H69 cells): 7.66; pIC50 (MCF7 cells): 7.66; pIC50 (MES-SA cells): 7.19; pIC50 (MCF7-VP cells): 7.55; IC50 ratio between resistant and non-resistant cells (MCF7-VP cells): 1.273

Q: How did the “IC50 ratio between resistant and non-resistant cells” value (N6/ADR cells) turn out when CCCCCOC(=O)c1[nH]c2c(c1C)C(=O)CC(c1nccs1)C2 (stereo not drawn) [SMS213, pentyl-3-methyl-4-oxo-6-(thiazol-2-yl)-4,5,6,7-tetrahydro-1H-indole-2-carboxylate] was run?
A: The value was 1.019.

Q: What about the pIC50 (N6/ADR cells) of the same compound?
A: Its pIC50 is 6.96.

Q: What about the pIC50 (MES-SA/DX5 cells) of the same compound?
A: Its pIC50 is 6.86.

Q: What about the “IC50 ratio between resistant and non-resistant cells” value (MES-SA/DX5 cells) of the same compound?
A: Its value is 1.158.

Q: And the pIC50 (RPMI 8226 cells)?
A: Its pIC50 is 7.04.

Q: And the pIC50 (NALM6 cells)?
A: The pIC50 was 6.97.

Q: And the pIC50 (RPMI-LR5 cells)?
A: The pIC50 was 7.22.

Q: And the “IC50 ratio between resistant and non-resistant cells” value (RPMI-LR5 cells)?
A: Its value is 0.652.

Q: And the pIC50 (MCF7 cells)?
A: The pIC50 was 6.61.

Q: And the pIC50 (MES-SA cells)?
A: The pIC50 was 6.92.

Q: And the pIC50 (MM1.S cells)?
A: Its pIC50 is 6.91.

Q: What about the pIC50 (RPMI-DOX40 cells) of the same compound?
A: The pIC50 was 7.17.

Q: And the “IC50 ratio between resistant and non-resistant cells” value (RPMI-DOX40 cells)?
A: The value was 0.739.

Q: And the pIC50 (RPMI-MR20 cells)?
A: The pIC50 was 7.10.

Q: And the “IC50 ratio between resistant and non-resistant cells” value (RPMI-MR20 cells)?
A: Its value is 0.859.

Q: What about the “IC50 ratio between resistant and non-resistant cells” value (MM1.R cells; MM1.R / MM1.S) of the same compound?
A: The value was 1.185.

Q: What about the pIC50 (MM1.R cells) of the same compound?
A: The pIC50 was 6.83.

Q: And the pIC50 (MCF7-VP cells)?
A: The pIC50 was 6.29.

Q: And the “IC50 ratio between resistant and non-resistant cells” value (MCF7-VP cells)?
A: Its value is 2.114.

Q: Which results are given for CC(=O)O[C@H]1C(=O)[C@@]2(C)[C@H]([C@H](OC(=O)c3ccccc3)[C@]3(O)C[C@H](OC(=O)[C@H](O)[C@@H](NC(=O)c4ccccc4)c4ccccc4)C(C)=C1C3(C)C)[C@]1(OC(C)=O)CO[C@@H]1C[C@@H]2O [Paqlitaxel, paclitaxel]?
A: pIC50 (A2780 cells): 8.19; IC50 ratio between resistant and non-resistant cells (A2780ADR cells): 61.538; pIC50 (A2780ADR cells): 6.40; IC50 ratio between resistant and non-resistant cells (N6/ADR cells): 2.857; sensitivity to Pgp glycoprotein overexpression (N6/ADR cells; N6/ADR vs NALM6 dose response): sensitive to PgP; pIC50 (N6/ADR cells): 7.62; pIC50 (MES-SA/DX5 cells): < 6.00; IC50 ratio between resistant and non-resistant cells (MES-SA/DX5 cells): >9.009; effectiveness in subline overexpressing PgP (MES-SA/DX5 cells): less effective in the subline overexpressing PgP; pIC50 (NCI-H69 VCR/R cells): < 6.00; IC50 ratio between resistant and non-resistant cells (NCI-H69 VCR/R cells): >16.949; pIC50 (NCI-H69 cells): 7.23; pIC50 (NALM6 cells): 8.08; pIC50 (MCF7 cells): 6.87; pIC50 (MES-SA cells): 6.96; pIC50 (MCF7-VP cells): 7.13; IC50 ratio between resistant and non-resistant cells (MCF7-VP cells): 0.544
